Laboratory results: patent US7201899B2, “Materials and methods for management of hyperacute rejection in human xenotransplantation” (BresaGen Limited, priority 1994, dated 2007)

Experiments:
[1] = tested on: pig RBC; experiment: Hemagglutination of pig RBC by human serum: sugar inhibition; type: cell-based; settings: for Inhibitory Concentration: inhibition of pig RBC hemagglutination by pooled human AB serum; for concentration range inhibiting agglutination (in words): pig RBC agglutination by human serum
Protocol: The methods used to investigate the hemagglutination of pig red blood cells (RBC's) by human serum was adapted from the methods described by Galili, J. Exp. Med. 160: 1579–81 (1984) and Severson, Immunol. 96: 785–789 (1966).
A. Media/Solution Preparation • 1. Human Serum Albumin (HSA) (CSL, Melbourne, Australia) (5 mg/ml) was dissolved in PBS, filter sterilized, and stored at 4° C. • 2. Preparation of sugars: • 1 M stock solutions of sugar were prepared by dissolving the amount indicated in 100 ml of PBS. Sodium azide was added (0.02%) and solutions stored at 4° C.
B. Preparation of Pig RBC'S • 1. Heparinised pig blood (Animal Resources, Clayton, Australia) is centrifuged at 800 RPM for 10 min to pellet the RBC. • 2. The RBC pellet is washed by resuspension in PBS (10 ml) and recentrifugation (repeated 3 times). After the final wash, the RBC pellet is resuspended in 10 ml PBS. • 3. A 0.5% solution of RBC's is prepared by adding 50 ul RBC solution (from step 2, above) to 10 ml PBS containing 0.5 g/100 ml of HSA.
C. Preparation of 96-well Microtitre Plates (Titretek. USA) • 1. Add 25 ul of PBS to each well. • 2. Add 25 ul of pooled human AB serum (CSL, Melbourne, Australia) to column 1 and serially dilute by removing 25 ul from column 1 and adding to column 2, then repeating by sequentially removing and adding 25 ul from and to each well across the plate, finally discarding 25 μl from column 11 and adding no serum to column 12. • 3. Add 25 ul of sugar solution to each row in decreasing concentrations down rows. No sugar solution is added to the final row. • 4. Incubate at 4° C. overnight and then at 37° C. for 30 min. • 5. Add 50 ul of 0.5% pig RBC to each well; vortex and incubate at room temperature for 2 hours. Determine agglutination visually. II. Results

[2] = tested on: PK-1 and PAE's cells; experiment: Antibody staining and FACS analysis of porcine cells; type: binding; settings: for inhibition of anti-GAL IgM and/or IgG staining of porcine cells by sugar: anti-GAL antibodies pre-incubated with sugar (0.1 M) at 37° C. for 30 min; for decrease of anti-GAL antibody staining of PAE's (FIG. 1): anti-GAL antibody pre-incubated with sugar, versus anti-GAL antibody alone
Protocol: C. Antibody Staining and FACS Analysis • 1) Add 2 ml TED to a 75 cm^2 culture flask containing PK-1 or PAE'S, and incubate at room temperature for 10 min. • 2) Add RPMI plus 10% FCS (5 ml) to neutralize trypsin. • 3) Pellet cells by centrifugation (700 g, 5 min, • 4) Wash cells by resuspension and centrifugation in Hanks Buffer (×2). • 5) Pellet cells by centrifugation (700 g, 5 min, 4° C.). • 6) Resuspend cell pellet in Hanks buffer containing purified anti-GAL antibodies, GAL-depleted serum or GAL-depleted IgG and incubate at 4° C. for 60 min. All antibodies were used undiluted, or diluted 1:2 or 1:4 in Hanks buffer. • 7) Add 1 ml of Hanks Buffer, pellet cells by centrifugation and aspirate off supernatant. • 8) Resuspend pellet in FITC-labelled sheep-anti-human IgG Fab2 or IgM Fab2 (Silenus, Hawthorn, Australia) diluted 1:80 in Hanks buffer. • 9) Incubate for 30 min. at 4° C. • 10) Wash three times with Hanks buffer; resuspend pellet from final wash in 0.5 ml Hanks buffer. • 11) Analyze stained samples using a FACScan II (Becton Dickinson) according to the manufacturer's instructions.
The specificity of the anti-GAL antibody binding to porcine cells was determined by examining the ability of sugars of various structures to inhibit antibody binding. In these competition studies the anti-GAL antibodies were pre-incubated with sugar (0.1 M) at 37° C. for 30 min before adding to the cells.

| SMILES | Inhibitory Concentration [1] | concentration range inhibiting agglutination (in words) [1] | inhibition of anti-GAL IgM and/or IgG staining of porcine cells by sugar [2] | decrease of anti-GAL antibody staining of PAE's (FIG. 1) [2] |
| --- | --- | --- | --- | --- |
| OC[C@H]1O[C@@H](O[C@H]2[C@H](O)[C@@H](O)[C@@H](O)O[C@@H]2CO)[C@H](O)[C@@H](O)[C@H]1O [Lactose, 4-O-β-D.galactopyranosyl-α-D-glucose] | >10^−1M | only inhibitory when very high concentrations were used | not inhibited | not affected significantly |
| O=C[C@H](O)[C@@H](O)[C@H](O)[C@H](O)CO[C@H]1O[C@H](CO)[C@H](O)[C@H](O)[C@H]1O [Melibiose, 6-O-α-D-galactopyranosyl-D-glucose] | 0.0005 M | μM to mM range | inhibited | approximately 10 fold less |
